Results from PubChem BioAssay (NCI).
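Where inhibition never reached the appropriate level, the endpoint shown equals the highest concentration tested. Otherwise, values were interpolated linearly from a five-concentration, 48-hour dose response in 96-well plates. The concentration for full growth arrest is given as TGI.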

Key:
Assay in all cases: growth of human tumour cells (NCI), 48 h
HCT-15 colon = test system: HCT-15 colon
MOLT-4 leukemia = test system: MOLT-4 leukemia
HCC-2998 colon = test system: HCC-2998 colon
RXF 393 renal = test system: RXF 393 renal
ACHN renal = test system: ACHN renal
SF-295 CNS = test system: SF-295 CNS
CCRF-CEM leukemia = test system: CCRF-CEM leukemia
TK-10 renal = test system: TK-10 renal
SK-MEL-28 melanoma = test system: SK-MEL-28 melanoma
LOX IMVI melanoma = test system: LOX IMVI melanoma
SK-MEL-5 melanoma = test system: SK-MEL-5 melanoma
RPMI-8226 leukemia = test system: RPMI-8226 leukemia
SK-MEL-2 melanoma = test system: SK-MEL-2 melanoma
SF-268 CNS = test system: SF-268 CNS
K-562 leukemia = test system: K-562 leukemia
SR leukemia = test system: SR leukemia
XF 498 CNS = test system: XF 498 CNS
A549 NSCLC = test system: A549 NSCLC
KM20L2 colon = test system: KM20L2 colon
U251 CNS = test system: U251 CNS
SW-620 colon = test system: SW-620 colon
NCI-H522 lung = test system: NCI-H522 lung
SNB-19 CNS = test system: SNB-19 CNS
IGROV1 ovarian = test system: IGROV1 ovarian
OVCAR-3 ovarian = test system: OVCAR-3 ovarian
LXFL 529 NSCLC = test system: LXFL 529 NSCLC
NCI-H23 lung = test system: NCI-H23 lung
SNB-75 CNS = test system: SNB-75 CNS
DLD-1 colon = test system: DLD-1 colon
A498 renal = test system: A498 renal
HOP-92 NSCLC = test system: HOP-92 NSCLC
UO-31 renal = test system: UO-31 renal
HOP-18 NSCLC = test system: HOP-18 NSCLC
OVCAR-8 ovarian = test system: OVCAR-8 ovarian
NCI-H460 lung = test system: NCI-H460 lung
M14 melanoma = test system: M14 melanoma
UACC-62 melanoma = test system: UACC-62 melanoma
SK-OV-3 ovarian = test system: SK-OV-3 ovarian
SF-539 CNS = test system: SF-539 CNS
UACC-257 melanoma = test system: UACC-257 melanoma
HL-60(TB) leukemia = test system: HL-60(TB) leukemia
HT29 colon = test system: HT29 colon
MALME-3M melanoma = test system: MALME-3M melanoma
KM12 colon = test system: KM12 colon
OVCAR-5 ovarian = test system: OVCAR-5 ovarian
EKVX NSCLC = test system: EKVX NSCLC
SN12C renal = test system: SN12C renal
RXF-631 renal = test system: RXF-631 renal
786-0 renal = test system: 786-0 renal
HOP-62 NSCLC = test system: HOP-62 NSCLC
M19-MEL melanoma = test system: M19-MEL melanoma
DMS 273 small cell lung = test system: DMS 273 small cell lung
COLO 205 colon = test system: COLO 205 colon
NCI-H226 lung = test system: NCI-H226 lung
HCT-116 colon = test system: HCT-116 colon
SNB-78 CNS = test system: SNB-78 CNS
OVCAR-4 ovarian = test system: OVCAR-4 ovarian
CAKI-1 renal = test system: CAKI-1 renal
DMS 114 small cell lung = test system: DMS 114 small cell lung

Measured: TGI

CCOC(=O)CCCO
not listed: HOP-62 NSCLC | M19-MEL melanoma | DMS 273 small cell lung | COLO 205 colon | NCI-H226 lung | HCT-116 colon | SNB-78 CNS | OVCAR-4 ovarian | CAKI-1 renal | DMS 114 small cell lung
> 100 µM: all other assays above

C/C(=N\NC(N)=S)c1ccc(C)cc1C
75.2 µM: RXF 393 renal
94.1 µM: OVCAR-5 ovarian
not listed: SK-MEL-28 melanoma | SF-268 CNS | NCI-H522 lung | SNB-19 CNS | DMS 114 small cell lung
> 100 µM: all other assays above

CC1CCC[P+](Cc2ccccc2)(c2ccccc2)CC1 (stereo unspecified)
51.4 µM: RPMI-8226 leukemia
13 µM: HOP-18 NSCLC
90.4 µM: OVCAR-4 ovarian
37.8 µM: HL-60(TB) leukemia
78.2 µM: SK-MEL-2 melanoma
35.9 µM: SK-MEL-5 melanoma
96.1 µM: DMS 114 small cell lung
42.6 µM: MALME-3M melanoma
not listed: SF-295 CNS | SR leukemia | NCI-H522 lung | OVCAR-3 ovarian | HOP-92 NSCLC | UACC-257 melanoma | HT29 colon | KM12 colon | NCI-H226 lung | HCT-116 colon | CAKI-1 renal
> 100 µM: all other assays above
